In ChEMBL document CHEMBL1909046, “DrugMatrix in vitro pharmacology data”:

Key:
[1] = DRUGMATRIX: Calcium Channel Type L, Dihydropyridine radioligand binding (ligand: [3H] Nitrendipine); type: cell membranes, Rattus norvegicus, Wistar, Cerebral cortex, Membrane; conditions: Not Active = under 50% inhibition at 10 µM
Thromboxane-A synthase = target: T1, Thromboxane-A synthase (Homo sapiens, UniProt P24557); assay: biochemical; type: tissue-based, Platelet; conditions: platelet;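 note: enzyme inhibition assay with PGH2 supplied as substrate; in other assays of this panel Not Active means under 50% inhibition at 10 µM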
T1 sequence (P24557 whole entry): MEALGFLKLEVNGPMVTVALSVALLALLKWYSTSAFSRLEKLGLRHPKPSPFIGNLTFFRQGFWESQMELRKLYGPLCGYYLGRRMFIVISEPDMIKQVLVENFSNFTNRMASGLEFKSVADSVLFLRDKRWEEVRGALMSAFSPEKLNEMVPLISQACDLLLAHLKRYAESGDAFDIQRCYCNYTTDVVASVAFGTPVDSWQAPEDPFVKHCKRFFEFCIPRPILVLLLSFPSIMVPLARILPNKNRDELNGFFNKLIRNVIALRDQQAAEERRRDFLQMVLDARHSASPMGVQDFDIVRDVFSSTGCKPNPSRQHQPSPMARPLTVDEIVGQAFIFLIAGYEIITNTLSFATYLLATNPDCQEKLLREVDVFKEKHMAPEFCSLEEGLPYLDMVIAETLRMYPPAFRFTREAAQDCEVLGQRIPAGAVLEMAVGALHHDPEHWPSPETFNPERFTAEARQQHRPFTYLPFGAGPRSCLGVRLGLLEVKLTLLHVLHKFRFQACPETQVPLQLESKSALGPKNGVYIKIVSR

Substance-K receptor = target: T2, Substance-K receptor (Homo sapiens, UniProt P21452); type: cell membranes, CHO, Membrane; conditions: cho; note: in other assays of this panel Not Active means under 50% inhibition at 10 µM
T2 sequence (P21452 whole entry): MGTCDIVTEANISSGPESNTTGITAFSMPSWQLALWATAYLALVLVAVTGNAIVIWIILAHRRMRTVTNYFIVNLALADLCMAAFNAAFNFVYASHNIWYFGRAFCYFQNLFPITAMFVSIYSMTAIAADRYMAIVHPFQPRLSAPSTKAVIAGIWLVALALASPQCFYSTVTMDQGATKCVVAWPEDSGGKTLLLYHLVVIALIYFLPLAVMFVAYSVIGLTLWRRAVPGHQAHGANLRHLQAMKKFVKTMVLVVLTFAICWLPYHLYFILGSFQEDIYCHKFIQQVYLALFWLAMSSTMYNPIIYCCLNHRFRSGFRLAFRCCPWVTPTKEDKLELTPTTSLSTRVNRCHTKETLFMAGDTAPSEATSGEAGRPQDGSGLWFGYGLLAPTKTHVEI

Nitric oxide synthase 1 = Nitric oxide synthase 1 (Rattus norvegicus, UniProt P29476); type: tissue-based, Cerebellum; note: in other assays of this panel Not Active means under 50% inhibition at 10 µM
[2] = DRUGMATRIX: beta-Lactamase enzyme inhibition (substrate: Nitrocefin); design: species or system Bacillus cereus; conditions: Not Active = under 50% inhibition at 10 µM
Neutrophil elastase = target: T3, Neutrophil elastase (Homo sapiens, UniProt P08246); type: tissue-based;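 note: inhibition of neutrophil elastase enzyme activity, measured with a p-nitroanilide-linked peptide substrate; in other assays of this panel Not Active means under 50% inhibition at 10 µM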
T3 sequence (P08246 whole entry): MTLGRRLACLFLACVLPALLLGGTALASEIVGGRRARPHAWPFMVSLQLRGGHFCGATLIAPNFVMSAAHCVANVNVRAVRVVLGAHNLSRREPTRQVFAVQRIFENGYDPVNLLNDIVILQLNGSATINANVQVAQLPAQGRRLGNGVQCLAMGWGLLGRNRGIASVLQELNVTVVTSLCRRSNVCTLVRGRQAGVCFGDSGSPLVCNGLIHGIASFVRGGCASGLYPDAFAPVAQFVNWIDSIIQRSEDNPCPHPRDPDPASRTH

Interstitial collagenase = target: T4, Interstitial collagenase (Homo sapiens, UniProt P03956); assay: biochemical; type: tissue-based, Rheumatoid synovial fibroblasts
T4 sequence (P03956 whole entry): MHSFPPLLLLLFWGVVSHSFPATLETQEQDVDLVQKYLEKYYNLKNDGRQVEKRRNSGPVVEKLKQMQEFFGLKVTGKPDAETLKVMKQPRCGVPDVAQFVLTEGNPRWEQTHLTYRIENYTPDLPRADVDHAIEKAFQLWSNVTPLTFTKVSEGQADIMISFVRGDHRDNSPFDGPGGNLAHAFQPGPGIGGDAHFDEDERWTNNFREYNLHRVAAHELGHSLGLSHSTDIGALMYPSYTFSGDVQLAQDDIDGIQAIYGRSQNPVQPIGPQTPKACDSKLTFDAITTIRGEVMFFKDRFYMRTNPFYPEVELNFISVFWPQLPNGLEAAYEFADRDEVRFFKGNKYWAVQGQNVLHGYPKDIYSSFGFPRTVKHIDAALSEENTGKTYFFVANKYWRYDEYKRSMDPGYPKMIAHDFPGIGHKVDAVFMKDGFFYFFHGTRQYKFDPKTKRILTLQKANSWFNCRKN

Chain of Nitric oxide synthase 1 (P29476 whole entry): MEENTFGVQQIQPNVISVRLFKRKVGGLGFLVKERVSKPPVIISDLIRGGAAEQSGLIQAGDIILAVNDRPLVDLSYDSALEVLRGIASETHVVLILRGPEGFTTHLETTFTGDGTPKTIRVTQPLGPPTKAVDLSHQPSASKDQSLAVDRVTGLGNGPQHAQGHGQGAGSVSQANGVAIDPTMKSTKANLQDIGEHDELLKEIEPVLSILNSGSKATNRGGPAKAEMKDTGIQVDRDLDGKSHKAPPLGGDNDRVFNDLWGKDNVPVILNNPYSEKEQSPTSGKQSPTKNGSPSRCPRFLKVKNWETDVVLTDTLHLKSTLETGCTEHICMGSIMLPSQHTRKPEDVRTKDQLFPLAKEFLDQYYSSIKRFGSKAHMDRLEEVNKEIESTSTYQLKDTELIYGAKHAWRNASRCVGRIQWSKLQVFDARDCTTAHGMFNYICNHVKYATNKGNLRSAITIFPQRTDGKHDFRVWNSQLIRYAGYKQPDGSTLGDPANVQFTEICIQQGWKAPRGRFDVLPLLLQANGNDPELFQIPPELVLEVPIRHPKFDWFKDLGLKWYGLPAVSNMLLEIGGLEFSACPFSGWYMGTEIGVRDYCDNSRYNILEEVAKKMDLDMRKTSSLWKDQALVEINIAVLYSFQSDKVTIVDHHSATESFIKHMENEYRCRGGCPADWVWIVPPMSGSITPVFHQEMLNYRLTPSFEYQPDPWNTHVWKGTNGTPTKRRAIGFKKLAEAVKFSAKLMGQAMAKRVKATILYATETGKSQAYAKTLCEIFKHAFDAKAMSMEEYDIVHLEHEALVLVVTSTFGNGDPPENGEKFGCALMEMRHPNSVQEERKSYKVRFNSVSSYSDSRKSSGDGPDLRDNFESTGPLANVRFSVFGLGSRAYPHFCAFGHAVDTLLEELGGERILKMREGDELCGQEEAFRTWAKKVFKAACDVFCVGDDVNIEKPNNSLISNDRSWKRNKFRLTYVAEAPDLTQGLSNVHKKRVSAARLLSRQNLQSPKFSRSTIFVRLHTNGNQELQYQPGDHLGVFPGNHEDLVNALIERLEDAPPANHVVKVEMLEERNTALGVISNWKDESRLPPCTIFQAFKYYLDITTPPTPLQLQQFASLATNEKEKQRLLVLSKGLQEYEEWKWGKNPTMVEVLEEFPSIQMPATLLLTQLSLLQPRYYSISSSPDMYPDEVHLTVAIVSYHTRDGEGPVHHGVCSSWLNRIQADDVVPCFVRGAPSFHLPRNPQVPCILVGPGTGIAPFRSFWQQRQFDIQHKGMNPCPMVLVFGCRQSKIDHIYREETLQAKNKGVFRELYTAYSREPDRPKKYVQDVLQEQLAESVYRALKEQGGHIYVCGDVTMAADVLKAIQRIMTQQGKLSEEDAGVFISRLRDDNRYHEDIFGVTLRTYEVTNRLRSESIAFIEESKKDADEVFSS

Cc1cnc(NC(=O)C2=C(O)c3ccccc3S(=O)(=O)N2C)s1 [MELOXICAM]
Not Active: IC50 [1] | Ki [1] | IC50 (Thromboxane-A synthase) | IC50 (Substance-K receptor) | IC50 (Nitric oxide synthase 1) | IC50 [2] | Ki [2] | IC50 (Neutrophil elastase) | IC50 (Interstitial collagenase)

CC1=C(/C=C/C(C)=C/C=C/C(C)=C/C(=O)O)C(C)(C)CCC1 [TRETINOIN]
Not Active: IC50 [1] | Ki [1] | IC50 (Thromboxane-A synthase) | IC50 (Substance-K receptor) | IC50 (Nitric oxide synthase 1) | IC50 [2] | Ki [2] | IC50 (Neutrophil elastase) | IC50 (Interstitial collagenase)

Cc1ccc(S(=O)(=O)NC(=O)NN2CCCCCC2)cc1 [TOLAZAMIDE]
Not Active: IC50 [1] | Ki [1] | IC50 (Thromboxane-A synthase) | IC50 (Substance-K receptor) | IC50 (Nitric oxide synthase 1) | IC50 [2] | Ki [2] | IC50 (Neutrophil elastase) | IC50 (Interstitial collagenase)

Cc1cccc(C)c1NC(=O)C(C)N (stereo unspecified) [TOCAINIDE]
Not Active: IC50 [1] | Ki [1] | IC50 (Thromboxane-A synthase) | IC50 (Substance-K receptor) | IC50 (Nitric oxide synthase 1) | IC50 [2] | Ki [2] | IC50 (Neutrophil elastase) | IC50 (Interstitial collagenase)

Cc1cc2c(s1)Nc1ccccc1N=C2N1CCN(C)CC1 [OLANZAPINE]
Not Active: IC50 (Thromboxane-A synthase) | IC50 (Substance-K receptor) | IC50 (Nitric oxide synthase 1) | IC50 (Neutrophil elastase) | IC50 (Interstitial collagenase)

COC(=O)Nc1nc2ccc(C(=O)c3ccccc3)cc2[nH]1 [MEBENDAZOLE]
Not Active: IC50 [1] | Ki [1] | IC50 (Thromboxane-A synthase) | IC50 (Substance-K receptor) | IC50 (Nitric oxide synthase 1) | IC50 [2] | Ki [2] | IC50 (Neutrophil elastase) | IC50 (Interstitial collagenase)

O=C1CC[C@@]2(O)[C@H]3Cc4ccc(O)c5c4[C@@]2(CCN3CC2CC2)[C@H]1O5 [NALTREXONE]
Not Active: IC50 [1] | Ki [1] | IC50 (Thromboxane-A synthase) | IC50 (Substance-K receptor) | IC50 (Nitric oxide synthase 1) | IC50 [2] | Ki [2] | IC50 (Neutrophil elastase) | IC50 (Interstitial collagenase)

CCN(CC)CCNC(=O)c1cc(Cl)c(N)cc1OC [METOCLOPRAMIDE]
Not Active: IC50 [1] | Ki [1] | IC50 (Thromboxane-A synthase) | IC50 (Substance-K receptor) | IC50 (Nitric oxide synthase 1) | IC50 [2] | Ki [2] | IC50 (Neutrophil elastase) | IC50 (Interstitial collagenase)

CCOc1cc(N)c(Cl)cc1C(=O)NCC1CN(Cc2ccc(F)cc2)CCO1 (stereo unspecified) [MOSAPRIDE]
Not Active: IC50 [1] | Ki [1] | IC50 (Thromboxane-A synthase) | IC50 (Substance-K receptor) | IC50 (Nitric oxide synthase 1) | IC50 [2] | Ki [2] | IC50 (Neutrophil elastase) | IC50 (Interstitial collagenase)

Cc1ccc(Cl)c(Nc2ccccc2C(=O)O)c1Cl [MECLOFENAMIC ACID]
Not Active: IC50 [1] | Ki [1] | IC50 (Thromboxane-A synthase) | IC50 (Substance-K receptor) | IC50 (Nitric oxide synthase 1) | IC50 [2] | Ki [2] | IC50 (Neutrophil elastase) | IC50 (Interstitial collagenase)

CN(C)CCC=C1c2ccccc2COc2ccccc21 [DOXEPIN]
Not Active: IC50 (Thromboxane-A synthase) | IC50 (Substance-K receptor) | IC50 (Nitric oxide synthase 1) | IC50 (Neutrophil elastase) | IC50 (Interstitial collagenase)

CNCCCC12CCC(c3ccccc31)c1ccccc12 [MAPROTILINE]
Not Active: IC50 (Thromboxane-A synthase) | IC50 (Substance-K receptor) | IC50 (Nitric oxide synthase 1) | IC50 (Neutrophil elastase) | IC50 (Interstitial collagenase)
